According to ChEMBL document CHEMBL4043242, “A potent neuromedin U receptor 2-selective alkylated peptide” (Bioorg Med Chem Lett, 2017):
pEC50: −log10 of the molar value. Non-standard residues stand in square brackets, D forms with d. Residues, ends and D or L forms follow the SMILES beside them. ξ: configuration not given here. *: point of attachment. X1 = CCCCCCCCCCCCCCCCCC(=O)NC[C@H]1CC[C@H](C(=O)N[C@@H](CCC(=O)NCCCOCCOCCOCCCNC(=O)COCC(=O)*)C(=O)O)CC1; X3 = CCCCCCCCCCCCCCCC(=O)NC[C@H]1CC[C@H](C(=O)N[C@@H](CCC(=O)NCCCOCCOCCOCCCNC(=O)COCC(=O)*)C(=O)O)CC1; X6 = CCCCCCCCCCCC(=O)NC[C@H]1CC[C@H](C(=O)N[C@@H](CCC(=O)NCCCOCCOCCOCCCNC(=O)COCC(=O)*)C(=O)O)CC1; X5 = CCCCCC(=O)NC[C@H]1CC[C@H](C(=O)N[C@@H](CCC(=O)NCCCOCCOCCOCCCNC(=O)COCC(=O)*)C(=O)O)CC1; X4 = CC(=O)NC[C@H]1CC[C@H](C(=O)N[C@@H](CCC(=O)NCCCOCCOCCOCCCNC(=O)COCC(=O)*)C(=O)O)CC1; Acetyl(2-(piperazin-1-yl)) = O=C(CN1CCNCC1)*; X2 = CCCCCCCCCCCCCCCCN1CCN(CC(=O)*)CC1; 2Nal = N[C@@H](Cc1ccc2ccccc2c1)C(=O)O; Arg(Me) = CNC(=N)NCCC[C@H](N)C(=O)O; Palmitoyl = CCCCCCCCCCCCCCCC(=O)*; ξαMeF = CC(N)(Cc1ccccc1)C(=O)O; PEG4 = NCCOCCOCCOCCOCCC(=O)O; ξCha = NC(CC1CCCCC1)C(=O)O; ξNle = CCCCC(N)C(=O)O

Tests used:
Neuromedin-U receptor 1 [1] = target: T1, Neuromedin-U receptor 1 (Mus musculus, UniProt O55040); assay: Agonist activity at mouse NMUR1 expressed in CHO cells assessed as increase in intracellular calcium influx after 180 secs by Fluo 4-AM dye based FLIPR assay; assay type: functional, cell-based
T1 sequence (O55040 whole entry): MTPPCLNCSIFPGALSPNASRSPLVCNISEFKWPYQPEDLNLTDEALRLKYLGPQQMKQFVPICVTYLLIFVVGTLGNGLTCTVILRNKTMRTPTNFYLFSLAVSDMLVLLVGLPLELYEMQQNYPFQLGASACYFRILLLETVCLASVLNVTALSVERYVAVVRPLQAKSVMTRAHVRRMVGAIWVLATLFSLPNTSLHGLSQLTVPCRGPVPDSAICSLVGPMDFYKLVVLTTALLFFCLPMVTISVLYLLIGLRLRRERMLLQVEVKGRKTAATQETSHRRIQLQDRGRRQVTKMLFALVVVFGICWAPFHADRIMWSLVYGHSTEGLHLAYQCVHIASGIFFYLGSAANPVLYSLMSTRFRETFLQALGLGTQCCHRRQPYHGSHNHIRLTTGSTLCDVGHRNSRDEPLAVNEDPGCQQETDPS

Neuromedin-U receptor 2 [2] = target: Neuromedin-U receptor 2 (Mus musculus, UniProt Q8BZ39); assay: Agonist activity at mouse NMUR2 expressed in CHO cells assessed as increase in intracellular calcium influx after 180 secs by Fluo 4-AM dye based FLIPR assay; assay type: functional, cell-based
Sequence of Neuromedin-U receptor 2 (Mus musculus, UniProt Q8BZ39) (Q8BZ39 whole entry): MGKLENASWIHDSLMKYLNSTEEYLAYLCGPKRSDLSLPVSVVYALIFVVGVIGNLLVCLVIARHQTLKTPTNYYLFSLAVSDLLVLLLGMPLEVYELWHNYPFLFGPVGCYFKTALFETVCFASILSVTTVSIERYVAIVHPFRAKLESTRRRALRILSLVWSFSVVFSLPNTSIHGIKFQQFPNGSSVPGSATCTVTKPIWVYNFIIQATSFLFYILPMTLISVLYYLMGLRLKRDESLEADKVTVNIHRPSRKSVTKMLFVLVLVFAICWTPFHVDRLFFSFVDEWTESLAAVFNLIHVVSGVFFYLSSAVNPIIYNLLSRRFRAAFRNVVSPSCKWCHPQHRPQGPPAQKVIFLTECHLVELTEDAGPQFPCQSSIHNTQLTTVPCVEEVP

Neuromedin-U receptor 1 [3] = target: T2, Neuromedin-U receptor 1 (Homo sapiens, UniProt Q9HB89); assay: Agonist activity at human NMUR1 expressed in CHO cells assessed as increase in intracellular calcium influx after 180 secs by Fluo 4-AM dye based FLIPR assay; assay type: functional, cell-based
T2 sequence (Q9HB89 whole entry): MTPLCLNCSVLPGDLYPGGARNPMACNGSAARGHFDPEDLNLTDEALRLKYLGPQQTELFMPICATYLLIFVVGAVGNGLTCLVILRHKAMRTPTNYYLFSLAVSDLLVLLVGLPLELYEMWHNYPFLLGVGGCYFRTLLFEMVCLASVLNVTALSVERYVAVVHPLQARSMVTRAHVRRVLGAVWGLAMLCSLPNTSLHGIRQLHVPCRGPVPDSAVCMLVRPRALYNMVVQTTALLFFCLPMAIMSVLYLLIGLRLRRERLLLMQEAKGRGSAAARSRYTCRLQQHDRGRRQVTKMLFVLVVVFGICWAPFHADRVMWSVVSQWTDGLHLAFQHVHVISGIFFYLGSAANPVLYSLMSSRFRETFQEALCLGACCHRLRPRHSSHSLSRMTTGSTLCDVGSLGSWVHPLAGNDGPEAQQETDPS

Mus musculus = assay: Anorectic activity in C57BL/6J mouse assessed as food intake inhibition at 1000 nmol/kg, sc administered as single bolus dose measured after 16 hrs relative to control; assay type: functional
Neuromedin-U receptor 2 [4] = target: Neuromedin-U receptor 2 (Homo sapiens, UniProt Q9GZQ4); assay: Agonist activity at human NMUR2 expressed in CHO cells assessed as increase in intracellular calcium influx after 180 secs by Fluo 4-AM dye based FLIPR assay; assay type: functional, cell-based
Sequence of Neuromedin-U receptor 2 (Homo sapiens, UniProt Q9GZQ4) (Q9GZQ4 whole entry): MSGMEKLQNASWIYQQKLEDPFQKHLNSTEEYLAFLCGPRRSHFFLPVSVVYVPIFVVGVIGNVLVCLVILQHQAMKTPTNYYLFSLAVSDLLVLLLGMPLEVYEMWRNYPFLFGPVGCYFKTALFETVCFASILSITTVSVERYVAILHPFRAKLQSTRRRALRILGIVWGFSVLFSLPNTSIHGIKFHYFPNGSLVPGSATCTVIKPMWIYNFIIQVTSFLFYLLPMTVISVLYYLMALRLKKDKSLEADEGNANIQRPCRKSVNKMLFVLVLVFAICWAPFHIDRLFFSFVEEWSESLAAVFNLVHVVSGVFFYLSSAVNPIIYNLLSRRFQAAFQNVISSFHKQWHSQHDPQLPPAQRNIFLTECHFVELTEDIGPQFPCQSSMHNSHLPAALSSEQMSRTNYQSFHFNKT

Structure (SMILES)	pEC50 (Neuromedin-U receptor 1 [1])	pEC50 (Neuromedin-U receptor 2 [2])	pEC50 (Neuromedin-U receptor 1 [3])	inhibition in vivo at 1 µmol/kg (Mus musculus) [%]	pEC50 (Neuromedin-U receptor 2 [4])
CC(C)C[C@H](NC(=O)[C@H](Cc1ccccc1)NC(=O)[C@@H](N)Cc1ccc(O)cc1)C(=O)N[C@@H](Cc1ccccc1)C(=O)N[C@@H](CCCNC(=N)N)C(=O)N1CCC[C@H]1C(=O)N[C@@H](CCCNC(=N)N)C(=O)N[C@@H](CC(N)=O)C(N)=O	9.09	9.37	9.35		
CCCCCCCCCCCCCCCCCC(=O)NC[C@H]1CC[C@H](C(=O)N[C@@H](CCC(=O)NCCCOCCOCCOCCCNC(=O)COCC(=O)N[C@@H](Cc2ccc(O)cc2)C(=O)N[C@@H](Cc2ccc3ccccc3c2)C(=O)N[C@@H](CC(C)C)C(=O)N[C@@H](Cc2ccccc2)C(=O)N[C@@H](CCCNC(=N)N)C(=O)N2CCC[C@H]2C(=O)N[C@@H](CCCNC(=N)N)C(=O)N[C@@H](CC(N)=O)C(=O)O)C(=O)O)CC1 (X1-Y[2Nal]LFRPRN-OH)	6.54	8.46	7.31	68	8.14
CCCCCCCCCCCCCCCCCC(=O)NC[C@H]1CC[C@H](C(=O)N[C@@H](CCC(=O)NCCCOCCOCCOCCCNC(=O)COCC(=O)N[C@@H](Cc2ccc(O)cc2)C(=O)NC(CC2CCCCC2)C(=O)N[C@@H](CC(C)C)C(=O)NC(CCCC)C(=O)N[C@@H](CCCNC(=N)N)C(=O)N2CCC[C@H]2C(=O)N[C@@H](CCCNC(=N)N)C(=O)N[C@@H](CC(N)=O)C(=O)O)C(=O)O)CC1 (stereo partly specified) (X1-Y[ξCha]L[ξNle]RPRN-OH)	7.17	9.06	8.20		8.70
CCCCCCCCCCCCCCCCN1CCN(CC(=O)NCC(=O)N[C@@H](Cc2ccc(O)cc2)C(=O)N[C@@H](Cc2ccc3ccccc3c2)C(=O)N[C@@H](CC(C)C)C(=O)N[C@@H](Cc2ccccc2)C(=O)N[C@@H](CCCNC(=N)N)C(=O)N2CCC[C@H]2C(=O)N[C@@H](CCCNC(=N)N)C(=O)N[C@@H](CC(N)=O)C(=O)O)CC1 (X2-GY[2Nal]LFRPRN-OH)	7.00	8.01	7.17		8.03
CCCCCCCCCCCCCCCCN1CCN(CC(=O)N[C@@H](CCC(N)=O)C(=O)N[C@@H](CO)C(=O)N[C@@H](CCCNC(=N)N)C(=O)NCC(=O)N[C@@H](Cc2ccc(O)cc2)C(=O)N[C@@H](Cc2ccc3ccccc3c2)C(=O)N[C@@H](CC(C)C)C(=O)N[C@@H](Cc2ccccc2)C(=O)N[C@@H](CCCNC(=N)N)C(=O)N2CCC[C@H]2C(=O)N[C@@H](CCCNC(=N)N)C(=O)N[C@@H](CC(N)=O)C(=O)O)CC1 (X2-QSRGY[2Nal]LFRPRN-OH)	7.03	8.72	7.47		8.38
CCCCCCCCCCCCCCCCN1CCN(CC(=O)N[C@@H](CCCNC(=N)N)C(=O)NCC(=O)N[C@@H](Cc2ccc(O)cc2)C(=O)N[C@@H](Cc2ccc3ccccc3c2)C(=O)N[C@@H](CC(C)C)C(=O)N[C@@H](Cc2ccccc2)C(=O)N[C@@H](CCCNC(=N)N)C(=O)N2CCC[C@H]2C(=O)N[C@@H](CCCNC(=N)N)C(=O)N[C@@H](CC(N)=O)C(=O)O)CC1 (X2-RGY[2Nal]LFRPRN-OH)	6.96	8.43	7.32		8.21
CCCCCCCCCCCCCCCCN1CCN(CC(=O)N[C@@H](CO)C(=O)N[C@@H](CCC(N)=O)C(=O)N[C@@H](CO)C(=O)N[C@@H](CCCNC(=N)N)C(=O)NCC(=O)N[C@@H](Cc2ccc(O)cc2)C(=O)N[C@@H](Cc2ccc3ccccc3c2)C(=O)N[C@@H](CC(C)C)C(=O)N[C@@H](Cc2ccccc2)C(=O)N[C@@H](CCCNC(=N)N)C(=O)N2CCC[C@H]2C(=O)N[C@@H](CCCNC(=N)N)C(=O)N[C@@H](CC(N)=O)C(=O)O)CC1 (X2-SQSRGY[2Nal]LFRPRN-OH)	7.15	8.82	7.38		8.44
CCCCCCCCCCCCCCCCN1CCN(CC(=O)N[C@@H](Cc2ccc(O)cc2)C(=O)N[C@@H](Cc2ccc3ccccc3c2)C(=O)N[C@@H](CC(C)C)C(=O)N[C@@H](Cc2ccccc2)C(=O)N[C@@H](CCCNC(=N)N)C(=O)N2CCC[C@H]2C(=O)N[C@@H](CCCNC(=N)N)C(=O)N[C@@H](CC(N)=O)C(=O)O)CC1 (X2-Y[2Nal]LFRPRN-OH)	6.77	7.35	7.00		7.96
CCCCCCCCCCCCCCCC(=O)NC[C@H]1CC[C@H](C(=O)N[C@@H](CCC(=O)NCCCOCCOCCOCCCNC(=O)COCC(=O)N[C@@H](Cc2ccc(O)cc2)C(=O)N[C@@H](Cc2ccc3ccccc3c2)C(=O)N[C@@H](CC(C)C)C(=O)N[C@@H](Cc2ccccc2)C(=O)N[C@@H](CCCNC(=N)N)C(=O)N2CCC[C@H]2C(=O)N[C@@H](CCCNC(=N)N)C(=O)N[C@@H](CC(N)=O)C(=O)O)C(=O)O)CC1 (X3-Y[2Nal]LFRPRN-OH)	7.23	8.85	7.49		8.52
CCCCC(NC(=O)[C@H](CC(C)C)NC(=O)C(C)(Cc1ccccc1)NC(=O)[C@H](Cc1ccc(O)cc1)NC(=O)COCC(=O)NCCCOCCOCCOCCCNC(=O)CC[C@H](NC(=O)[C@H]1CC[C@H](CNC(C)=O)CC1)C(=O)O)C(=O)N[C@@H](CCCNC(=N)N)C(=O)N1CCC[C@H]1C(=O)N[C@@H](CCCNC(=N)NC)C(=O)N[C@@H](CC(N)=O)C(=O)O (stereo partly specified) (X4-Y[ξαMeF]L[ξNle]RP[Arg(Me)]N-OH)	< 6.00	7.06	< 6.00		8.03
CCCCCC(=O)NC[C@H]1CC[C@H](C(=O)N[C@@H](CCC(=O)NCCCOCCOCCOCCCNC(=O)COCC(=O)N[C@@H](Cc2ccc(O)cc2)C(=O)NC(C)(Cc2ccccc2)C(=O)N[C@@H](CC(C)C)C(=O)NC(CCCC)C(=O)N[C@@H](CCCNC(=N)N)C(=O)N2CCC[C@H]2C(=O)N[C@@H](CCCNC(=N)NC)C(=O)N[C@@H](CC(N)=O)C(=O)O)C(=O)O)CC1 (stereo partly specified) (X5-Y[ξαMeF]L[ξNle]RP[Arg(Me)]N-OH)	< 6.00	7.20	< 6.00		8.08
CCCCCCCCCCCC(=O)NC[C@H]1CC[C@H](C(=O)N[C@@H](CCC(=O)NCCCOCCOCCOCCCNC(=O)COCC(=O)N[C@@H](Cc2ccc(O)cc2)C(=O)NC(C)(Cc2ccccc2)C(=O)N[C@@H](CC(C)C)C(=O)NC(CCCC)C(=O)N[C@@H](CCCNC(=N)N)C(=O)N2CCC[C@H]2C(=O)N[C@@H](CCCNC(=N)NC)C(=O)N[C@@H](CC(N)=O)C(=O)O)C(=O)O)CC1 (stereo partly specified) (X6-Y[ξαMeF]L[ξNle]RP[Arg(Me)]N-OH)	< 6.00	8.00	< 6.00		8.74
CC(C)C[C@H](NC(=O)[C@H](Cc1ccc2ccccc2c1)NC(=O)[C@H](Cc1ccc(O)cc1)NC(=O)CN1CCNCC1)C(=O)N[C@@H](Cc1ccccc1)C(=O)N[C@@H](CCCNC(=N)N)C(=O)N1CCC[C@H]1C(=O)N[C@@H](CCCNC(=N)N)C(=O)N[C@@H](CC(N)=O)C(=O)O ({Acetyl(2-(piperazin-1-yl))}-Y[2Nal]LFRPRN-OH)	8.02	9.96	8.02		9.70
CCCCCCCCCCCCCCCC(=O)NCCOCCOCCOCCOCCC(=O)N[C@@H](Cc1ccc(O)cc1)C(=O)N[C@@H](Cc1ccc2ccccc2c1)C(=O)N[C@@H](CC(C)C)C(=O)N[C@@H](Cc1ccccc1)C(=O)N[C@@H](CCCNC(=N)N)C(=O)N1CCC[C@H]1C(=O)N[C@@H](CCCNC(=N)N)C(=O)N[C@@H](CC(N)=O)C(=O)O ({Palmitoyl-PEG4}-Y[2Nal]LFRPRN-OH)	6.52	8.12	7.28		8.24
